Test results taken from US9138421B2, “Platinum compounds for treating cell proliferative diseases, preparation method and use thereof” (priority 2011, dated 2015).
Marks after values point to notes of the source that are not given here.

Legend:
[1] = test system: normal mice; assay: Acute toxic effect of platinum complex on normal mice (LD50); type: in vivo, Kunming mice; details: single intravenous administration in 5% glucose, 14 days observation, Bliss method
Procedure: (§1) Test 1: Acute Toxic Effect of Platinum Complex on Normal Mice
(§2) Embodiment platinum compound was dissolved with 5% glucose solution. […] Mortality and toxicity were observed after administration.

[2] = test system: lung cancer H292; assay: MTT cytotoxicity, lung cancer H292; type: cell-based; details: n = 6
Procedure: (§3) The toxic action of Embodiment platinum containing compounds was observed on tumor cells by MTT colorimetric method. Several kinds of tumor cells in exponential growth phase were prepared into single cell suspension, inoculated on 96 pore plat at the density of 4×10^4/hole, cultivated for 24 hours to enable to adhere to wall with 1640 culture medium containing 10% fetal calf serum (complete medium) at 37° C.; the final culture volume was 100 μl. Cell morphology was observed after culture for 24 hours.

[3] = test system: testis cell ST; assay: MTT cytotoxicity, testis cell ST; type: cell-based; details: n = 6
Procedure: as §3

[4] = test system: gastric cancer MGC803; assay: MTT cytotoxicity, gastric cancer MGC803; type: cell-based; details: n = 6
Procedure: as §3

[5] = test system: esophagus cancer ECA109; assay: MTT cytotoxicity, esophagus cancer ECA109; type: cell-based; details: n = 6
Procedure: as §3

[6] = test system: breast cancer MCF-7 tumor cell line; assay: In vivo antitumor activity, breast cancer MCF-7 in nude mice; details: MCF-7, 15 mg/kg, every 2 days, 4 times, end 30 days after inoculation
[7] = test system: colon cancer SW480; assay: MTT cytotoxicity, colon cancer SW480; type: cell-based; details: n = 6
Procedure: as §3

[8] = test system: Pulmonary epithelial cell BEAS-2B; assay: MTT cytotoxicity, pulmonary epithelial cell BEAS-2B; type: cell-based; details: n = 6
Procedure: as §3

[9] = test system: lung cancer Lewis; assay: MTT cytotoxicity, lung cancer Lewis; type: cell-based; details: n = 6
Procedure: as §3

[10] = test system: lung cancer H292 cell line; assay: In vivo antitumor activity, lung cancer H292 in nude mice; details: H292, 15 mg/kg, every 2 days, 4 times, end 30 days after inoculation
[11] = Acute toxic effect of platinum complex on normal mice (LD50); type: in vivo, Kunming mice; details: both sexes, Kunming, mouse, in vivo; single intravenous administration in 5% glucose, 14 days observation, Bliss method
Procedure: as §1, §2

[12] = Solubility in water
[13] = test system: colon cancer SW480 cell line; assay: In vivo antitumor activity, colon cancer SW480 in nude mice (2), dose series; details: 3 days, tumor weighed 24 hours after drug discontinuance

Compound	LD50 value [1] [mmol/kg]	IC50 [2] [µM]	IC50 [3] [µM]	IC50 [4] [µM]	tumor inhibition rate (%) [6] [%]	IC50 [7] [µM]	tumor inhibition rate (%) [10]	LD50 at 14 days [11] [µmol/kg]	solubility ([12]; water) [mg/mL]	further results
[2-(2-di-n-propylamine ethyl)-malonato].[cis-1,4-butanediamine] platinum (II) phosphate [compound 22]	0.882	102	302	556	40.9 ± 8.97	–	–	–	–	IC50 [5]: 215 µM
[2-(3-diethylamine propyl)-malonato].[cis-(1,2-trans-diaminocyclopentane)]platinum (II) phosphate [compound 17]	0.616	249	302	556	39.8 ± 12.12	205	–	–	–	–
CCN(CC)CCC1C(=O)[O][Pt]2([NH]C3CCCCC3[NH]2)[O]C1=O.O=C(O)CC(O)(CC(=O)O)C(=O)O (stereo not drawn) [compound 13, [2-(2-diethylamine ethyl)-malonato].[cis-(1,2-trans-cyclohexamethylenediamine)]platinum (II) citrate]	–	316	–	–	–	80	56.1 ± 9.81 ^ %	–	–	IC50 [8]: 145 µM; IC50 [9]: 36 µM
[NH2][Pt]1([NH2])[O]C(=O)C(CCCN2CCCCC2)C(=O)[O]1 [compound 29, [2-(3-(1-piperidyl)-propyl)-malonato].[cis-diamine]platinum (II) phosphate]	–	–	–	–	–	–	–	784	159	–
CN(C)CCC1C(=O)[O][Pt]([NH2])([NH2])[O]C1=O [compound 2, [2-(2-dimethylamine ethyl)-malonato].[cis-diamine] platinum (II) acetate]	–	–	–	–	–	–	–	791	198	–
[2-(2-ethylamine ethyl)-malonato].[cis-(1,2-trans-cyclohexamethylene diamine)]platinum (II) phosphate [compound 12]	0.609	241	–	–	–	203	76.3 ± 20.67*^ %	–	–	IC50 [8]: 15 µM; IC50 [9]: 57 µM; solubility ([12]; in water): 221 mg/mL
[2-(2-amino ethyl)-malonato].[cis-(1,2-trans-cyclohexamethylene diamine)]platinum (II) phosphate [compound 9]	0.724	63	–	–	–	71	79.2 ± 14.99 %	–	–	IC50 [8]: 57 µM; IC50 [9]: 69 µM; solubility ([12]; in water): 275 mg/mL
CCN(CC)CCCC1C(=O)[O][Pt]2([NH]C3CCCCC3[NH]2)[O]C1=O.O=P(O)(O)O (stereo not drawn) [compound 14, [2-(3-diethylamine propyl)-malonato].[cis-(1,2-trans-cyclohexamethylenediamine)]platinum (II) phosphate]	0.902	161	251	213	–	78	39.8 ± 8.51 %	–	–	–
NCCCC1C(=O)[O][Pt]([NH2])([NH2])[O]C1=O [compound 4, [2-(3-amino propyl)-malonato].[cis-diamine] platinum (II) phosphate]	–	–	–	–	–	–	–	802	176	–
CCN(CC)CCCC1C(=O)[O][Pt]2([NH]C3CCC3[NH]2)[O]C1=O.O=C(O)CCC(=O)O (stereo not drawn) [compound 18, 2-(3-diethylaminepropyl)-malonic.cis-(1,2-trans-aminocyclobutyl) platinum (II) succinate]	–	224	147	367	45.0 ± 9.87	281	–	–	–	–
[2-(2-dimethylamine ethyl)-malonato].[cis-1,3-(2,2-hydroxymethyl)-propane diamine]platinum (II) phosphate [compound 24]	0.509	65	153	217	44.8 ± 11.31	–	–	–	–	IC50 [5]: 125 µM
CCN(CC)CCCC1C(=O)[O][Pt]([NH2])([NH2])[O]C1=O [compound 6, 2-(3-diethylaminepropyl)-malonic-cis-diamino platinum (II) phosphate]	–	–	–	–	–	–	–	749	165	–
[2-(3-di-n-propylamine propyl)-malonato].[cis-(1, 2-trans-cyclohexamethylene diamine)]platinum (II) phosphate [compound 16]	0.524	402	16	216	–	77	35.2 ± 6.43 %	–	–	–
[2-(2-dimethylamine ethyl)-malonato].[cis-1,2-ethylenediamine] platinum (II) tosilate [compound 20]	0.753	351	12	149	54.52 ± 10.25	–	–	–	–	IC50 [5]: 193 µM
N.N.[Cl][Pt][Cl] [cisplatin, Cis-dichlorodiamminoplatinum, reference compound]	–	–	–	–	–	–	–	–	–	tumor inhibition rate (%) (x ±SD) ([13]; SW480, 3 mg/kg): 62.9 ± 9.01%; tumor inhibition rate (%) (x ±SD) ([13]; SW480, 5 mg/kg): 71.1 ± 10.76%
CN(C)CCC1C(=O)[O][Pt]2([NH]C3CCCCC3[NH]2)[O]C1=O (stereo not drawn) [compound 10, [2-(2-dimethylamino ethyl)-malonato].[cis-(1,2-trans-cyclohexanediamine)] platinum (II)]	0.593	54	–	–	–	94	55.3 ± 11.21 ^ %	–	–	IC50 [8]: 220 µM; IC50 [9]: 143 µM
[2-(3-dimethylamine propyl)-malonato].[cis-(1,2-trans-cyclohexamethylene diamine)]platinum (II) phosphate [compound 11]	0.509	6	–	–	–	57	35.9 ± 7.13 %	–	–	IC50 [8]: 168 µM; IC50 [9]: 213 µM
CCCN(CCC)CCC1C(=O)[O][Pt]2([NH]C3CCCCC3[NH]2)[O]C1=O.O=P(O)(O)O (stereo not drawn) [compound 15, [2-(2-di-n-propylamine ethyl)-malonato].[cis-(1,2-trans-cyclohexamethylenediamine)]platinum (II) phosphate]	0.469	651	12	149	–	92	59.0 ± 11.02 ^ %	–	–	–
[2-(2-diethylamine ethyl)-malonato].[cis-1,2-(1,2-dihydroxymethyl)-ethyldiamine]platinum (II) phosphate [compound 23]	0.702	84	147	367	44.1 ± 15.12	–	–	–	–	IC50 [5]: 212 µM
CCN(CC)CCC1C(=O)[O][Pt]2([NH]CCC[NH]2)[O]C1=O.O=P(O)(O)O [compound 21, [2-(2-diethylamine ethyl)-malonato].[cis-1,3-propyldiamine] platinum (II) phosphate]	0.716	205	16	216	40.3 ± 9.65	–	–	–	–	IC50 [5]: 174 µM; solubility ([12]; in water): 231 mg/mL
[NH2][Pt]1([NH2])[O]C(=O)C(CCCN2CCCC2)C(=O)[O]1 [compound 30, [2-(3-(1-pyrrolidyl)-propyl)-malonato].[cis-diamine] platinum (II) phosphate]	–	–	–	–	–	–	–	802	160	–
CNCCC1C(=O)[O][Pt]([NH2])([NH2])[O]C1=O [compound 1, [2-(2-methylamine ethyl)-malonato].[cis-diamino]platinum (II) phosphate]	–	–	–	–	–	–	–	722	221	–
CCN(CC)CCC1C(=O)[O][Pt]([NH2])([NH2])[O]C1=O [compound 5, [2-(2-diethylamine ethyl)-malonato].[cis-diamine] platinum (II) phosphate]	–	–	–	–	–	–	–	853	187	–
CCN(CC)CCCC1C(=O)[O][Pt]2([NH]C3CC3[NH]2)[O]C1=O.O=P(O)(O)O (stereo not drawn) [compound 19, [2-(3-diethylamine propyl)-malonato].[cis-(1,2-trans-cyclopropyldiamine)]platinum (II) phosphate]	0.802	62	251	213	52.6 ± 10.5	–	–	–	–	IC50 [5]: 88 µM; solubility ([12]; in water): 218 mg/mL
CN(C)CCCC1C(=O)[O][Pt]([NH2])([NH2])[O]C1=O [compound 3, [2-(3-dimethylamine propyl)-malonato].[cis-diamine] platinum (II) phosphate]	–	–	–	–	–	–	–	824	164	–
